# Test results published in ChEMBL document CHEMBL1799994, “Synthesis and docking studies on styryl chromones exhibiting cytotoxicity in human breast cancer cell line” (Bioorg Med Chem Lett, 2010).
# How the values were obtained:
# MCF7 [1] = assay: Cytotoxicity against human MCF7 cells expressing estrogen receptor after 24 hrs by MTT assay; assay type: functional, cell-based
# MCF7 [2] = assay: Antiproliferative activity against human MCF7 cells expressing estrogen receptor after 24 hrs by MTT assay; assay type: functional, cell-based
structure (smiles),measurement,setting,value
CC(=O)OC1=C(/C=C/c2ccccc2)Oc2ccccc2C1=C(C#N)C#N,Activity,MCF7 [1],Dose-dependent effect
same,Activity,MCF7 [2],Dose-dependent effect
